Measurements as given in patent US12023341B2, “Platinum-acridine compounds and methods of treating cancers” (Wake Forest University, priority 2020, dated 2024).

Legend:
[1] = test system: HCT-116 cells; experiment: Uptake of compound 1 after epigenetic drugs, confocal fluorescence microscopy; assay type: cell-based, human; details: HCT-116, pre-screen of epigenetic drugs, alone or in combination
Experimental: We first pre-screened several epigenetic drugs in cultured HCT-116 cells in a multi-well plate format for their ability to increase the uptake of compound 1 using confocal fluorescence microscopy. […] These compounds were then tested again at escalating doses (2.5-20 mM).
Confocal fluorescence microscopy. Cells were seeded and allowed to attach overnight before any treatment. After cells were treated depend on purposes of different experiments, media was removed and dishes were rinsed 3 times with 1 mL of pre-warmed PBS buffer. Cells were then used fixed with 4% formaldehyde in PBS buffer for 15 minutes. Dishes were then washed an additional 3 times with 1 mL of pre-warmed PBS before imaging. Images were collected using a LSM 880 Confocal Microscope (Carl Zeiss Microscopy) using a 63X/1.4NA Plan-Apochromatic objective. The fluorescence of acridine was excited with a 405 nm (15 mW) laser at 4.4% and collected between 405-481 nm. To allow comparative fluorescence intensity analysis, excitation power, pinhole settings, PMT gain, and offset values across and within imaging sessions for each respective channel were not changed. The intensity of acridine-related fluorescence in treated cells was estimated by drawing a region of interest around each cell. A total of more than 100 individual cells across 3 views of 2 independent experiments were analyzed in this fashion. […]

[2] = molecular target: T1, hMATE1 (Homo sapiens, UniProt Q96FL8); details: reported values; cited from earlier work
T1 sequence (Q96FL8 1-570): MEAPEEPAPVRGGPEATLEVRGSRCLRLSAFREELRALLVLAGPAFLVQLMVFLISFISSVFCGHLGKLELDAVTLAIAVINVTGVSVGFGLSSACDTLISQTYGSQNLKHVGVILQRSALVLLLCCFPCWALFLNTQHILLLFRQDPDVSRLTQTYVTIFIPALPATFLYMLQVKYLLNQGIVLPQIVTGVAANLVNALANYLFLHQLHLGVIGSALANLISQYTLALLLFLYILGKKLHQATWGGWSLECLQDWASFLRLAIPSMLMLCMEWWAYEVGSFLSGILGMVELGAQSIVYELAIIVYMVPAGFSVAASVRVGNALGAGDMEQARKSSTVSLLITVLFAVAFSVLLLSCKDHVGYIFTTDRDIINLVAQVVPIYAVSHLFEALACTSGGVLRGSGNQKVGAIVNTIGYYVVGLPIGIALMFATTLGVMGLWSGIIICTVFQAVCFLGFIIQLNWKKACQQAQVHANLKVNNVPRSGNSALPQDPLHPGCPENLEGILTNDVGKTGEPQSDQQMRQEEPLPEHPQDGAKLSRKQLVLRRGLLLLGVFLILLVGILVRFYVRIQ

## CS(=O)(=O)c1ccc(-c2cnc(NCc3ccco3)n3cnnc23)cc1 [EED226]
[1]
  uptake of compound 1 (acridine-associated blue fluorescence): enhanced uptake of compound 1

## CCN(c1cc(-c2ccc(CN3CCOCC3)cc2)cc(C(=O)NCc2c(C)cc(C)[nH]c2=O)c1C)C1CCOCC1 [EPZ-6438]
[1]
  uptake of compound 1 (acridine-associated blue fluorescence): enhanced uptake of compound 1

## CCc1nc(N)nc(N)c1-c1ccc(Cl)cc1 [pyrimethamine]
[2]
  Ki: 77 to 93 nM
